Drawing on PubChem BioAssay (NCI), this text covers TGI and GI50 for 27 molecules.

Common to all, as to test: NCI tumour cell line growth inhibition, 48 h
For assay [1], the system named is MDA-N.
Assay [2] relates to U251 CNS.
For assay [3], the system named is SW-620 colon.
Assay [4] relates to IGROV1 ovarian.
For assay [5], the system named is NCI-H23 lung.
Assay [6] concerns HL-60(TB) leukemia.
For assay [7], the system named is MCF7 breast.
Assay [8] relates to OVCAR-3 ovarian.
Assay [9] deals with MALME-3M melanoma.
Assay [10] has as its system 786-0 renal.
The subject of assay [11] is T-47D breast.

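Five compound concentrations were applied to cells in 96-well plates for 48 hours; endpoints were derived by simple linear interpolation of the resulting dose-response curve. Abbreviation: GI50, concentration required for 50% inhibition of growth. At the TGI there is no net growth.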 Where a SMILES comes first, the peptide text is derived from it. The star is where a group is joined. Boc = CC(C)(C)OC(=O)*

For `COC(=O)C(Cc1c[nH]c2ccccc12)NC(=O)C(Cc1c[nH]c2ccccc12)NC(=O)C(Cc1c[nH]c2ccccc12)NC(=O)C(Cc1c[nH]c2ccccc12)NC(=O)C(Cc1c[nH]c2ccccc12)NC(=O)C(Cc1c[nH]c2ccccc12)NC(=O)C(Cc1c[nH]c2ccccc12)NC(=O)C(Cc1c[nH]c2ccccc12)NC(=O)OC(C)(C)C` (stereo not drawn) (Boc-WWWWWWWW-OMe; configuration not given here), the TGI in assay [1] is > 100 µM; in assay [2] it was > 100 µM; in assay [3] it was > 100 µM; in assay [4], > 100 µM; in [5] it was > 100 µM; in [6], 53.5 µM. Further, the TGI in assay [7], in assay [8], in assay [9] and in assay [10] was > 100 µM each time.

With `N/C(=N\N=C\c1ccc2c(c1)OCCO2)NO`, the TGI in [2] was > 100 µM; in assay [3], > 100 µM; in assay [4], > 100 µM; in [5] it was > 100 µM; in assay [6] it was > 63.2 µM; in assay [7], > 82.4 µM. This molecule had a TGI in assay [8] of 16.2 µM.

As for `COc1cc(/C=C/C(=O)C2(C(=O)/C=C/c3cc(OC)c(OC)c(OC)c3)CCCCC2)cc(OC)c1OC`, the TGI in assay [2], in assay [3], in assay [11], in [4], in assay [5] and in assay [6] was > 100 µM in each case. Moreover, the TGI in assay [7] is > 100 µM; in assay [8], 58.4 µM; in assay [9], > 100 µM; in assay [10], > 100 µM.

For `O=C1c2ccc(O)c(O)c2C(=O)c2c(O)ccc(O)c21`, the TGI in assay [2] was > 100 µM; in assay [3] it was > 100 µM; in assay [4], > 100 µM; in assay [5], 93.8 µM; in assay [8], 49.7 µM; in assay [10] it was > 100 µM.

For the molecule `COc1ccc(/C=C2\CCC(C)C3=C2N=c2s/c(=C/c4cccc(Br)c4)c(=O)n2C3c2ccc(OC)c(OC)c2)cc1OC` (stereo not drawn), the TGI in assay [1], in [2], in assay [3], in [4], in [6] and in assay [7] was > 100 µM each time. Moreover, in [10], the TGI was > 100 µM.

As to `O=C1c2ccccc2C(=O)N1CC(O)COc1cccc2ccccc12` (stereo not drawn), the TGI in assay [1], in [2], in [3], in [4], in assay [6] and in assay [7] was > 100 µM in each case. In addition, the TGI in [8] and in assay [9] was > 100 µM throughout.

With `O=C(NNC(=S)NC1CCCCC1)c1csc(NC(=S)NC2CCCCC2)n1`, the TGI in [2] is 20.2 µM; in assay [3] it was 19.5 µM; in [11], 74.6 µM; in [4], 26.6 µM; in assay [5], 45.2 µM; in [6] it was > 100 µM. In addition, the TGI was > 100 µM in [7], 16.9 µM in assay [8], 26 µM in assay [9] and 19.9 µM in assay [10].

As to `CN(C)c1nc(Cl)c2c(-c3ccccc3)c(-c3ccccc3)oc2n1`, the TGI in [2] is > 100 µM; in assay [3] it was > 100 µM; in assay [11], > 100 µM; in [4], > 100 µM; in assay [5], > 100 µM; in [6], 36 µM. Moreover, the TGI in assay [7] and in assay [10] was > 100 µM in each case.

Take `C=C1C2C[C@@H]3O[C@H]4C[C@H]5O[C@@]6(C[C@@H]7O[C@]8(C[C@H](C)[C@@H]9O[C@@H]%10CC(CO)O[C@@H]%10C[C@@H]9O8)C[C@H](C)[C@@H]7O6)C[C@H]5O[C@H]4[C@H](C)[C@H]3OC(=O)C[C@H]3CC[C@@H]4OC5[C@H]6O[C@]7(CC[C@H]8CC(=C)[C@H](CC[C@@H](C[C@H]1C)O2)O8)CC6O[C@@H]5[C@@H](O7)[C@H]4O3` (stereo partly drawn): the TGI in [2] was > 1 µM; in assay [3], > 1 µM; in assay [4] it was > 1 µM; in assay [5], 0.00124 µM; in [8], > 1 µM; in assay [9], > 1 µM. Further, in assay [10], the TGI is > 0.413 µM.

As for `C(=C\c1ccco1)/c1cccc(/C=C/c2ccco2)n1`, the TGI in assay [1], in assay [3], in assay [4], in assay [5], in assay [6] and in [7] was > 50 µM each time. Besides, the TGI in assay [8], in assay [9] and in [10] was > 50 µM throughout.

With `COc1cc2c(cc1OCCCC(=O)Nc1ccc3ccc4cccc5ccc1c3c45)N=C[C@@H]1CCCN1C2=O`, the GI50 in assay [2] is < 0.01 µM; in assay [3], < 0.0126 µM; in [4] it was < 0.0167 µM; in [5], < 0.01 µM; in [8] it was 0.197 µM. Further, the TGI is > 100 µM in assay [2]; 0.0483 µM in assay [3]; < 0.01 µM in assay [5]; 0.297 µM in assay [7]; 0.518 µM in assay [8].

Regarding `Nc1nc2c3nc(Nc4ccccc4)sc3nc(=O)n2c2sc(Nc3ccccc3)nc12`, the TGI in [2], in assay [3], in assay [4], in assay [5], in assay [6] and in assay [9] was > 100 µM each time. Further, the TGI in assay [10] is > 100 µM.

Regarding `CC1(C)CCC[C@]2(C)[C@H]3[C@H](C#N)c4cc(O)c(O)cc4O[C@@]3(C)CC[C@@H]12`, the TGI in assay [1], in assay [2], in assay [3], in [4], in assay [5] and in assay [6] was > 10 µM throughout. For the same molecule, the TGI in assay [7], in assay [8] and in [10] was > 10 µM each time.

`Cc1ccccc1S(=O)(=O)Nn1cnc2ccc(S(=O)(=O)Nc3ccc(Cl)cc3)cc2c1=O`: the TGI in assay [1], in assay [2], in [3], in [4], in assay [5] and in [6] was > 100 µM in each case. Besides, the TGI in assay [7], in assay [8], in assay [9] and in assay [10] was > 100 µM in each case.

On to `OC(c1cc(C23CC4CC(CC(C4)C2)C3)nc2c(Cl)cc(Cl)cc12)C1CCCCN1` (stereo not drawn), for which the TGI was found to be 3 µM in assay [2]; 3.45 µM in [4]; 3.59 µM in [6]; 2.9 µM in assay [7]; 3.3 µM in assay [8]; 3.71 µM in assay [9]. Further, in assay [10], the TGI stood at 3.21 µM.

Take `COc1cc(/C=c2\sc3n(c2=O)C(c2ccc(Cl)cc2)C2=C(CCCC2C)N=3)cc(OC)c1OC` (stereo not drawn): the TGI in assay [1], in assay [2], in [3], in assay [4], in assay [6] and in [7] was > 100 µM in each case. Further, in assay [10], the TGI was > 100 µM.

On to `Cc1cc(S(=O)(=O)Nc2nc3ccccc3c(=O)n2N)c(S)cc1Cl`, for which the TGI in [1], in [2], in assay [3], in assay [4], in assay [5] and in [6] was > 100 µM in each case. Moreover, the TGI in assay [7] is > 100 µM; in assay [8], > 100 µM; in [9], 56.9 µM; in [10], 81.6 µM.

Turning to `CC(=O)O[C@H]1C(=O)[C@@]2(C)C(C(OC(=O)c3ccccc3)C3[C@@H](O)C(OC(=O)[C@@H](O)[C@H](NC(=O)c4ccccc4)c4ccc(C(F)(F)F)cc4)C(C)=C1C3(C)C)[C@]1(OC(C)=O)CO[C@@H]1C[C@@H]2O` (stereo partly drawn), the TGI in assay [2], in assay [3], in assay [4], in [5], in [6] and in [8] was > 25 µM in each case. Besides, the TGI in [9] and in assay [10] was > 25 µM in each case.

On to `Oc1ccc(-c2nc3ccc(Cl)cc3s2)cc1`, for which the TGI in [1] was determined as 37.6 µM; in assay [2] it was 46.9 µM; in assay [3] it was 39.3 µM; in assay [4], 32.4 µM; in assay [5] it was 36.5 µM; in assay [6] it was 57.7 µM. For the same molecule, the values for the TGI in [7], in assay [8] and in assay [9] were 22.6 µM, 40.7 µM and 36 µM, respectively.

As to `O=C(Nc1nc(C23CC4CC(CC(C4)C2)C3)cs1)c1cc2ccccc2oc1=O`, the TGI in assay [1], in [2], in [3], in [4], in assay [5] and in assay [6] was > 100 µM in each case. Also, the TGI in assay [7], in [8], in assay [9] and in [10] was > 100 µM in each case.

On to `Cn1c(-c2cccc([N+](=O)[O-])c2)[n+](C)c2ccccc21`, for which the TGI in assay [2], in [3], in assay [11], in [4], in [5] and in assay [6] was > 100 µM each time. In addition, the TGI in assay [7], in [8], in assay [9] and in assay [10] was > 100 µM throughout.

For the molecule `Cc1cc2c([nH]c3ccccc32)c2c1OC(C)(C)C1C3CC(C)(C)Oc4c(C)cc5c6ccccc6n(c5c43)C21` (stereo not drawn), the TGI in [2], in assay [3], in [4], in assay [5], in [6] and in assay [8] was > 100 µM throughout. In addition, the TGI in assay [9] and in assay [10] was > 100 µM throughout.

Take `Cc1ccc2c(c1)-c1nc(N)c(C#N)c(-c3ccccc3)c1CCS2(=O)=O`: the TGI in [1], in [2], in [3], in assay [11], in assay [4] and in [5] was > 100 µM throughout. Further, the values for the TGI in [8], in assay [9] and in assay [10] were > 100 µM, 87.3 µM and 44.1 µM, respectively.

In the case of `C=C1CCC([N+](=O)[O-])[C@](C)(N=O)CC[C@@H]2C1CC2(C)C` (stereo partly drawn), the TGI in [1] is > 100 µM; in assay [2], 48.2 µM; in assay [3], 47.2 µM; in [4] it was 59.1 µM; in [5], 33.3 µM; in assay [6], > 100 µM. Moreover, the TGI amounted to 39.6 µM in assay [7], 56.3 µM in assay [8], 49.5 µM in [9] and 42.6 µM in assay [10].

As to `CC(=O)C1CC[C@@H]2[C@H](CC[C@]3(C)[C@@H](O)CC[C@@H]23)[C@H]1C(=O)O` (stereo partly drawn), the TGI in assay [2], in [3], in [4], in [5], in assay [6] and in assay [7] was > 100 µM in each case. The TGI in assay [8] and in assay [9] was > 100 µM in each case.

Regarding `CC(=O)c1cc2ccccc2oc1=O`, the TGI in assay [1], in [2], in assay [3], in [4], in assay [5] and in [6] was > 100 µM each time. Besides, the TGI in assay [7], in assay [8], in [9] and in assay [10] was > 100 µM each time.

In the case of `O=C1CC(c2ccccc2)n2cccc21` (stereo not drawn), the TGI in [2], in assay [3], in assay [11], in [4], in [5] and in [6] was > 100 µM in each case. The TGI in [7], in assay [8] and in assay [10] was > 100 µM throughout.
